Structures are written as SMILES. pEC50: −log10 of the molar value. Like-named read-outs stand apart in the source and are kept apart here.

The subject of assay [1] is symmetric dimethylation of arginine (SDMA) of PRMT5 substrates in MCF-7 cells. Put plainly: PRMT5 Cell Target Engagement (TE) Assay. The following applies: 3 days treatment, SDMA high content imaging. It is filed as cell-based. A digest of the protocol: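 Readout is single-cell nuclear symmetric-dimethylarginine immunofluorescence (Alexa488), normalized to DMSO-treated cells. Compounds were applied to MCF-7 cells for 3 days at 37 °C, top concentration 10000 nM in 1:3 steps over ten points; curves fitted with 4-parameter robust fit.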

The target in assay [2] is T1, Full-length (FL)-PRMT5-MEP50 enzyme complex (Homo sapiens, UniProt O14744).
T1 construct: Full-length (FL)-PRMT5-MEP50 enzyme complex (recombinant proteins from baculovirus-transfected Sf21 cells: FL-PRMT5; MW=73837 kDa and FL-MEP50; MW=38614); made in house; host or cells: baculovirus-transfected Sf21 cells
T1 sequence (O14744 whole entry): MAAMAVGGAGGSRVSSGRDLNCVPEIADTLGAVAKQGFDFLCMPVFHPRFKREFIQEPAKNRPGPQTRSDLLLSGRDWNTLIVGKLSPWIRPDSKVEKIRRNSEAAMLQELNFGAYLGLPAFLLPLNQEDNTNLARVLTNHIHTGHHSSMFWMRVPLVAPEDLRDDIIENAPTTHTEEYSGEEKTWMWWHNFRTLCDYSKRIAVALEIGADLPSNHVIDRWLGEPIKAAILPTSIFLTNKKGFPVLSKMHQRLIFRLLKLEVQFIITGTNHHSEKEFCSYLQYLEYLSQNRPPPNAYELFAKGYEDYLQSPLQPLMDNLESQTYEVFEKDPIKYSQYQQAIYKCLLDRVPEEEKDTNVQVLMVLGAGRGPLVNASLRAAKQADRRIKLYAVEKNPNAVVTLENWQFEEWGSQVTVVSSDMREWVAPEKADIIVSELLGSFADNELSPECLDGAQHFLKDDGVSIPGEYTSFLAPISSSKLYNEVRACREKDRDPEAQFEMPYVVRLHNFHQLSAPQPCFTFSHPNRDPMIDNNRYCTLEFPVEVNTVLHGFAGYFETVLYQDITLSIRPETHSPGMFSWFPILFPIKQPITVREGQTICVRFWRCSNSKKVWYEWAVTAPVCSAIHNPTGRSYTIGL
T1 sequence (Q9BQA1 whole entry partner): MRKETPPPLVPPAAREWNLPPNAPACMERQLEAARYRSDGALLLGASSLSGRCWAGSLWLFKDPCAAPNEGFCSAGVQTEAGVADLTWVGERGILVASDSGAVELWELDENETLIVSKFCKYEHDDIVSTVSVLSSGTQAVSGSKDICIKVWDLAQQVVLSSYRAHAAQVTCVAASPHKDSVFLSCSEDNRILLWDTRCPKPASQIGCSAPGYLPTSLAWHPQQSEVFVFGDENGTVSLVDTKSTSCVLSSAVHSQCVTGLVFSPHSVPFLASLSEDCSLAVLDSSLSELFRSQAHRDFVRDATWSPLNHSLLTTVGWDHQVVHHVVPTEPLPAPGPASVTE
In words: PRMT5-MEP50 Enzyme Methylation Assay (Version A). It is filed as biochemical. The procedure, abridged: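 Compound was pre-incubated with enzyme for 60 min, then reacted 150 min at 37° C. at final 1.0 nM PRMT5-MEP50, 15 μM SAM and 75 nM biotinylated H4R3(Me1) peptide, in 50 mM Bicine pH 8.0 with 1% DMSO. SAMDI mass-spectrometric readout of Me1→Me2 conversion. EC50 from 4- or 7-parameter regression.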

[3] abbreviates: single EC50 = 4 parameter single site sigmoidal fit, EC50 1 = first value of 7 parameter biphasic fit, read-out: Enzyme Methylation Assay Version A (EC50 or EC50 1).
[4] abbreviates: second value of 7 parameter biphasic fit, read-out: Enzyme Methylation Assay Version A (EC50 2).

Consider `N#CC1(COc2nc(Br)cn3cc(C(=O)N4CC[C@]5(Cc6ccccc6CN5)[C@H](O)C4)nc23)CC1` [Example 21, 1-(((6-bromo-2-((3R,3’R)-3′-hydroxy-1,4-dihydro-2H-spiro[isoquinoline-3,4′-piperidine]-l′-carbonyl)imidazo[1,2-a]pyrazin-8-yl)oxy)methyl)cyclopropane-1-carbonitrile], for which the negative-log EC50 (pEC50) – broadly, −log10 of the EC50, conventionally taken in molar units – in assay [1] (Homo sapiens, MCF7, 72 h) is 8.67; in assay [2] (setting [3]), 9.72.
For `O=C(c1cn2cc(Br)c(O)cc2n1)N1CC[C@]2(Cc3ccccc3CN2)[C@H](O)C1` [Example 130, (6-bromo-7-hydroxy imidazo[1,2-a]pyridin-2-yl)[(3R,3′R)-3′-hydroxy-1,4-dihydro-1′H,2H-spiro[isoquinoline-3,4′-piperidin]-1′-yl]methanone], the negative-log EC50 (pEC50) was 5.02 in assay [1] (Homo sapiens, MCF7, 72 h); 4.71 in assay [2] (setting [4]); 7.67 in assay [2] (setting [3]).
With `CC(C)N1CCNc2cc(C(=O)N3CC[C@]4(Cc5ccccc5CN4)[C@H](O)C3)ccc2C1=O` [Example 27, 8-((3R,3’R)-3′-hydroxy-1,4-dihydro-1′H,2H-spiro[isoquinoline-3,4′-piperidine]-1′-carbonyl)-4-(propan-2-yl)-1,2,3,4-tetrahydro-5H-1,4-benzodiazepin-5-one], the negative-log EC50 (pEC50) in assay [1] (Homo sapiens, MCF7, 72 h) was 7.43; in assay [2] (setting [4]), 5.47; in assay [2] (setting [3]) it was 8.44.
As for `Cc1cc(C(F)F)n2nc(C(=O)N3CC[C@]4(Cc5ccccc5CN4)[C@H](O)C3)nc2n1` [Example 179, (7-(difluoromethyl)-5-methyl-[1,2,4]triazolo[1,5-a]pyrimidin-2-yl)((3R,3′R)-3′-hydroxy-1,4-dihydro-2H-spiro[isoquinoline-3,4′-piperidin]-1′-yl)methanone], the negative-log EC50 (pEC50) was 5.06 in assay [1] (Homo sapiens, MCF7, 72 h); 4.16 in assay [2] (setting [4]); 6.29 in assay [2] (setting [3]).
For `O=C(c1ccc2c(O)c(CC(F)(F)F)cnc2c1)N1CC[C@]2(Cc3ccccc3CN2)[C@H](O)C1` [Example 153, ((3R,3′R)-3′-hydroxy-1,4-dihydro-2H-spiro[isoquinoline-3,4′-piperidin]-1′-yl)(4-hydroxy-3-(2,2,2-trifluoroethyl)quinolin-7-yl)methanone] the same measures were 6.38, 5.53 and 8.37.
On the same counts, the results for `COc1nccc(-c2cc([C@@H](C)OC)c3nc(C(=O)N4CC[C@]5(Cc6ccccc6CN5)[C@H](O)C4)cn3c2)n1` [Example 240, [(3R,3′R)-3′-hydroxy-1,4-dihydro-1′H,2H-spiro[isoquinoline-3,4′-piperidin]-1′-yl]{8-[(1R)-1-methoxyethyl]-6-(2-methoxy-4-pyrimidinyl)imidazo[1,2-a]pyridin-2-yl}methanone] are 7.68, 6.95 and 9.43.
Regarding `COC(C)c1cc(Br)cn2cc(C(=O)N3CC[C@]4(Cc5ccc(Cl)cc5CN4)[C@H](O)C3)nc12` (single isomer, unassigned) [Example 226], the pEC50 in assay [1] (Homo sapiens, MCF7, 72 h) is 8.30; in assay [2] (setting [3]) it was 8.85.
For `Cn1nccc1-c1cnc2nc(C(=O)N3CC[C@]4(Cc5ccccc5CN4)[C@H](O)C3)cn2c1` [Example 78, [(3R,3′R)-3′-hydroxy-1,4-dihydro-1′H,2H-spiro[isoquinoline-3,4′-piperidin]-1′-yl][6-(1-methyl-1H-pyrazol-5-yl)imidazo[1,2-a]pyrimidin-2-yl]methanone], the negative logarithm of the EC50 (pEC50) was 7.34 in assay [1] (Homo sapiens, MCF7, 72 h); 7.11 in assay [2] (setting [4]); 9.29 in assay [2] (setting [3]).
As for `CO[C@H](C)c1cc(-c2ccnn2C)cn2cc(C(=O)N3CC[C@]4(Cc5ccccc5CN4)[C@H](O)C3)nc12` [Example 242, [(3R,3′R)-3′-hydroxy-1,4-dihydro-1′H,2H-spiro[isoquinoline-3,4′-piperidin]-1′-yl]{8-[(1R)-1-methoxyethyl]-6-(1-methyl-1H-pyrazol-5-yl)imidazo[1,2-a]pyridin-2-yl}methanone], the pEC50 in assay [1] (Homo sapiens, MCF7, 72 h) was 8.74; in assay [2] (setting [3]) it was 9.15.
For `COc1cccnc1-c1cc([C@@H](C)OC)c2nc(C(=O)N3CC[C@]4(Cc5ccccc5CN4)[C@H](O)C3)cn2c1` [Example 238, [(3R,3′R)-3′-hydroxy-1,4-dihydro-1′H,2H-spiro[isoquinoline-3,4′-piperidin]-1′-yl]{8-[(1R)-1-methoxyethyl]-6-(3-methoxy-2-pyridinyl)imidazo[1,2-a]pyridin-2-yl}methanone] the same measures were 8.37 and 8.89.
For `O=C(c1cc2oc3ccccc3c2cc1O)N1CC[C@]2(Cc3ccccc3CN2)[C@H](O)C1` [Example 182, ((3R,3′R)-3′-hydroxy-1,4-dihydro-2H-spiro[isoquinoline-3,4′-piperidin]-1′-yl)(2-hydroxydibenzo[b,d]furan-3-yl)methanone], the pEC50 in assay [1] (Homo sapiens, MCF7, 72 h) is 6.81; in assay [2] (setting [4]), 5.87; in assay [2] (setting [3]), 8.34.
For `Cc1ccc2c(c1)CN[C@@]1(CCN(C(=O)c3cn4cc(C5CC5)cnc4n3)C[C@H]1O)C2` [Example 228], the pEC50 in assay [1] (Homo sapiens, MCF7, 72 h) is 6.59; in assay [2] (setting [3]) it was 6.84.
Regarding `O=C(c1cn(C(F)F)cn1)N1CC[C@]2(Cc3ccccc3CN2)[C@H](O)C1` [Example 224, [1-(difluoromethyl)-1H-imidazol-4-yl][(3R,3′R)-3′-hydroxy-1,4-dihydro-1′H,2H-spiro[isoquinoline-3,4′-piperidin]-1′-yl]methanone], the pEC50 in assay [1] (Homo sapiens, MCF7, 72 h) was at most 5.00; in assay [2] (setting [4]) it was 4.18; in assay [2] (setting [3]), 5.45.
For `COC[C@@H]1C[C@H](C(F)(F)F)Cn2cc(C(=O)N3CC[C@]4(Cc5ccccc5CN4)[C@H](O)C3)nc21` (single isomer, unassigned) [Example 156] the same measures were 6.19, 4.80 and 7.37.
Regarding `COC(C)c1cc(C(F)F)cn2cc(C(=O)N3CC[C@]4(Cc5ccccc5CN4)[C@H](O)C3)nc12` (single isomer, unassigned) [Example 81], the pEC50 is 7.60 in assay [1] and 8.42 in assay [2] (setting [3]).
With `CCC1Oc2ccc(C(=O)N3CC[C@]4(Cc5ccccc5CN4)[C@H](O)C3)cc2NC1=O` (single isomer, unassigned) [Example 105, (2S or 2R)-2-ethyl-6-((3R,3′R)-3′-hydroxy-1,4-dihydro-2H-spiro[isoquinoline-3,4′-piperidine]-1′-carbonyl)-2H-benzo[b][1,4]oxazin-3(4H)-one], the pEC50 was 8.36 in assay [1], 6.84 in assay [2] (setting [4]) and 9.28 in assay [2] (setting [3]).
As for `O=C(c1cc2n(n1)CCS(=O)(=O)C2)N1CC[C@]2(Cc3ccccc3CN2)[C@H](O)C1` [Example 177, (5,5-dioxido-6,7-dihydro-4H-pyrazolo[5,1-c][1,4]thiazin-2-yl)((3R,3′R)-3′-hydroxy-1,4-dihydro-2H-spiro[isoqiuinoline-3,4′-piperidin]-1′-yl)methanone], the pEC50 in assay [1] (Homo sapiens, MCF7, 72 h) was at most 5.00; in assay [2] (setting [3]), 5.72.
As to `Cn1c(=O)c(Br)cn2cc(C(=O)N3CC[C@]4(Cc5ccccc5CN4)[C@H](O)C3)nc12` (single isomer, unassigned) [Example 249], the pEC50 in assay [1] (Homo sapiens, MCF7, 72 h) was 6.51; in assay [2] (setting [4]), 5.07; in assay [2] (setting [3]) it was 7.68.
Turning to `N#CCCC1CC(C(F)(F)F)Cn2cc(C(=O)N3CC[C@]4(Cc5ccccc5CN4)[C@H](O)C3)nc21` (single isomer, unassigned) [Example 165, 3-((6R,8S or 6S,8R)-2-((3R,3′R)-3′-hydroxy-1,4-dihydro-2H-spiro[isoquinoline-3,4′-piperidine]-1′-carbonyl)-6-(trifluoromethyl)-5,6,7,8-tetrahydroimidazo[1,2-a]pyridin-8-yl)propanenitrile], the results for the pEC50 in assay [1], in assay [2] (setting [4]) and in assay [2] (setting [3]) were 6.08, 4.57 and 7.09, respectively.
Regarding `N#Cc1ccc2nc(C(=O)N3CC[C@]4(Cc5ccccc5CN4)[C@H](O)C3)cn2c1` [Example 36, 2-((3R,3’R)-3′-hydroxy-1,4-dihydro-2H-spiro[isoquinoline-3,4′-piperidine]-1′-carbonyl)imidazo[1,2-a]pyridine-6-carbonitrile], the negative-log EC50 (pEC50) in assay [1] (Homo sapiens, MCF7, 72 h) was 7.88; in assay [2] (setting [4]), 5.55; in assay [2] (setting [3]), 8.20.
On to `O=C(c1cn2ncnc2cn1)N1CC[C@]2(Cc3ccccc3CN2)[C@H](O)C1` [Example 194, [(3R,3′R)-3′-hydroxy-1,4-dihydro-1′H,2H-spiro[isoquinoline-3,4′-piperidin]-1′-yl]([1,2,d]triazolo[1,5-a]pyrazin-6-yl)methanone], for which the pEC50 in assay [1] (Homo sapiens, MCF7, 72 h) is at most 5.00; in assay [2] (setting [4]), at most 4.00; in assay [2] (setting [3]) it was 6.32.
For `O=C(c1cn2cc(Br)ccc2n1)N1CC[C@]2(Cc3ccccc3CN2)[C@H](O)C1` [Example 1, (6-bromoimidazo[1,2-a]pyridin-2-yl)((3R,3′R)-3′-hydroxy-1,4-dihydro-2H-spiro[isoquinoline-3,4′-piperidin]-1′-yl)methanone] the same measures were 8.53, 7.12 and 9.30.
With `CN(C)C(=O)c1ccc2nc(C(=O)N3CC[C@]4(Cc5ccccc5CN4)[C@H](O)C3)cn2c1` [Example 2, 2-((3R,3′R)-3′-hydroxy-2,4-dihydro-1H-spiro[isoquinoline-3,4′-piperidin]-1′-ylcarbonyl)-N,N-dimethylimidazo[1,2-a]pyridine-6-carboxamide], the pEC50 in assay [1] (Homo sapiens, MCF7, 72 h) is 7.12; in assay [2] (setting [4]), 5.86; in assay [2] (setting [3]), 9.20.

For the origin of these results see patent US12441730B2, “PRMT5 inhibitors” (Merck Sharp & Dohme LLC, priority 2019, dated 2025).
